{"source": "patent US12583884B2", "about": "“3beta-(benzyloxy)-17alpha-methyl-pregn-5-en-20-one for use in the treatment of cognitive disorders” (AELIS FARMA, priority 2018, dated 2026)", "key": {"[1]": {"assay": "Anxiety-like behaviors in the elevated plus maze", "assay_type": "in vivo, mouse", "text": "The EPM apparatus was made of grey polyvinyl chloride and consisted of four elevated arms. The arms (height, 60 cm; length, 37 cm; width, 6 cm; each) were arranged in a cross-like disposition, with two opposite arms being enclosed by walls and the two other arms being open. A video camera placed on the top of the maze and connected to a tracking system allowed the automatic scoring of the locomotion of the mice in the maze. The light intensity of the maze was set at 45 lux in the open arms. One mouse was placed in the center of the EPM and was then free to explore the entire maze for 5 minutes. The time spent and the number of entries into the open arms and closed arms were measured. A decrease in the percentages of visits and/or of the time spent in open arms reflects an increase in anxiety levels.\nRimonabant was dissolved in a vehicle containing DMSO, (2%), Tween80 (2%) in injectable NaCl 0.9%. Within the same study, the effect of intraperitoneal injection of rimonabant at 10 mg/kg or of vehicle alone (10 ml/kg) was studied in the EPM in 2-month-old male C57B1/6J mice (n=10 per group). The EPM test was performed 30 minutes after rimonabant injection."}, "[2]": {"assay": "Depressive-like behaviors in the sucrose preference test", "assay_type": "in vivo, mouse", "protocol": "Sucrose preference was tested in the home cages of the mice. A sucrose solution containing 2% of sucrose (D(+) saccharose) in tap water was poured in plastic graduated bottles (volume in each bottle, 45 ml). Identical bottles were filled with tap water. All the mice were first habituated to the bottles and to the sucrose solution. One bottle containing water and one bottle containing sucrose were placed in the hopper of each home cage. […] The mice had access to the solutions from the beginning of the dark phase, at the daily peak of food and water consumption (from 7 pm to 8.30 am). The sucrose preference test was performed seven days later. Water and sucrose solutions were presented as described for habituation except that mice had access to the solutions from 12 pm to 10 pm. At each time point, the bottles were weighed, 1 g corresponding to 1 ml. The intake volume was calculated by subtracting the initial bottle weight to the final bottle weight.\n15 or 30 mg/kg or of vehicle (corn oil; 5 ml/kg) was studied in the sucrose preference test in 2-month-old male C57B1/6J mice (n=7-8 per group). Rimonabant was dissolved in a vehicle containing dimethylsulfoxide (DMSO, 2%), Tween80 (2%) in injectable NaCl 0.9%. Within the same study, the effect of repeated intraperitoneal injections of rimonabant at 10 mg/kg or of vehicle alone (10 ml/kg) was studied in the sucrose preference test in 2-month-old male C57B1/6J mice (n=8 per group)."}, "[3]": {"tested_on": "primary culture of rat cortical neurons", "assay": "Neurotoxicity in primary culture of cortical neurons", "assay_type": "cell-based", "conditions": "from 30 μM", "protocol": "Cells were then followed by time-lapse imaging during 72 hours. The cells were then permeabilized. This procedure allowed to express the cytolysis over time as a percentage of the total number of cells per well."}, "[4]": {"tested_on": "primary culture of rat hepatocytes", "assay": "Hepatotoxicity in primary culture of hepatocytes", "assay_type": "cell-based", "protocol": "(§1) The percentage of cytolysed hepatocytes over time was determined by time lapse imaging with a fluorescent cytolysis marker. The number of bile canaliculi after 48 hours of treatment was determined using a fluorescent bile salt analog.\n(§2) Primary rat hepatocytes from 10-12 weeks old Wistar rats were isolated using a two-step collagenase perfusion method. After 24 hours, cells were covered with a layer of Matrigel to perform a sandwich configuration culture. […] Cells were then stained using a fluorescent bile salt analog to measure the bile canaliculi network state and the Bsep pump activity. Acetaminophen (30 mM) and Cyclosporin A (1 μM) were added as positive controls of hepatotoxicity and biliary canaliculi loss, respectively."}, "[5]": {"tested_on": "primary culture of rat hepatocytes", "assay": "Biliary function: bile canaliculi in primary hepatocytes", "protocol": "as §1, §2"}, "[6]": {"conditions": "Beyer et al., 2010; Patel and Hillard, 2006; cited from earlier work"}, "[7]": {"conditions": "therapeutic dose for the treatment of obesity; Zavatti et al., 2011; EPAR; cited from earlier work"}, "[8]": {"assay": "Food intake of standard chow in lean mice", "conditions": "acute 10 mg/kg ip; first 3 hours after light-off; male C57BL/6J", "procedure": "Spontaneous intake of standard chow in mice was evaluated during the dark phase of the light-dark cycle. The amount of food eaten was measured at light-off, 3 hours and 13 hours after light-off."}, "HeLa cells": {"tested_on": "HeLa cells", "assay": "Genotoxicity: Histone H2AX phosphorylation", "conditions": "100 μM; 24 hours", "procedure": "This study aimed at measuring Histone H2AX phosphorylation (γH2AX), which is the cellular response to DNA damage resulting in double-stranded DNA breaks. […] Etoposide at 3 μM was added as positive control of genotoxic effects. An immunofluorescence was performed on treated cells with a specific antibody against the phosphorylated histone gH2AX. Nuclei were stained with a fluorescent DNA intercaling agent. The stained cells were imaged and analyzed on the BD Pathway 855 imager®."}, "[9]": {"assay": "Body weight of lean mice, repeated administrations", "source_text": "Mice were weighed prior to drug administration every day at the first week of treatment and then four days per week."}, "[10]": {"conditions": "reference ID100 for rimonabant effects = 10 mg/kg"}}}
{"smiles": "Cc1c(C(=O)NN2CCCCC2)nn(-c2ccc(Cl)cc2Cl)c1-c1ccc(Cl)cc1", "note": "[rimonabant]", "values": [{"measurement": "Time spent and number of visits in the open arms", "setting": "[1]; acute 10 mg/kg ip, 30 minutes after injection", "result": "markedly reduced the time spent and the number of visits in the open arms"}, {"measurement": "ID100: increase in anxiety-like behaviors", "setting": "[1]; male mice", "result": 10, "unit": "mg/kg"}, {"measurement": "Effect: increase in anxiety-like behaviors (acute administration)", "setting": "[1]; male mice, rimonabant 10 mg/kg", "result": "Yes"}, {"measurement": "N fold ID100: increase in anxiety-like behaviors", "setting": "[1]; [10]", "result": 1}, {"measurement": "Sucrose consumption", "setting": "[2]; 10 mg/kg ip once a day, 28 days", "result": "reduced by half sucrose consumption"}, {"measurement": "ID100: increase in depression-related behaviors", "setting": "[2]; male mice", "result": 10, "unit": "mg/kg"}, {"measurement": "Effect: increase in depression-related behaviors (repeated administration)", "setting": "[2]; male mice, rimonabant 10 mg/kg", "result": "Yes"}, {"measurement": "N fold ID100: increase in depression-related behaviors", "setting": "[2]; [10]", "result": 1}, {"measurement": "Neural cell death", "setting": "[3]", "result": 80, "unit": "%"}, {"measurement": "Hepatocyte death", "setting": "[4]; from 10 μM", "result": 100, "unit": "%"}, {"measurement": "Concentration increasing hepatocyte cell death", "setting": "[4]; tested 0.1 to 100 μM, 48 hours", "result": "≥ 3000", "unit": "nM"}, {"measurement": "Effect on bile canaliculi", "setting": "[5]; from 10 μM", "result": "suppressed bile canaliculi"}, {"measurement": "Concentration decreasing the number of canaliculi", "setting": "[5]; tested 0.1 to 100 μM, 48 hours", "result": "≥ 1000", "unit": "nM"}, {"measurement": "Doses with similar effects (anhedonia, anxiety-like behaviors) in rodents", "setting": "[6]", "result": "≥ 1", "unit": "mg/kg"}, {"measurement": "Doses inducing scratching, hyperactivity followed by sedation and convulsions", "setting": "[7]", "result": "6 times the therapeutic dose"}, {"measurement": "Food intake", "setting": "[8]", "result": "significantly decreased food intake"}, {"measurement": "Genotoxicity (DNA damage)", "setting": "HeLa cells", "result": "induced DNA damage"}, {"measurement": "Body weight", "setting": "[9]; 10 mg/kg ip once a day, 40 days", "result": "decreased body weight"}, {"measurement": "ID100: inhibition of food-intake and body weight", "setting": "[9]; male mice", "result": 10, "unit": "mg/kg"}, {"measurement": "Effect: inhibition of food-intake and body weight (repeated administration)", "setting": "[9]; male mice, rimonabant 10 mg/kg", "result": "Yes"}, {"measurement": "N fold ID100: inhibition of food-intake and body weight", "setting": "[9]; [10]", "result": 1}]}
